# Assay results reported in US11771709B2, “ALK protein degradation agent and anti-tumor application thereof” (ShanghaiTech University, priority 2017, dated 2023).
# What was measured:
# SR (NPM-ALK) cells = assay: Growth inhibition IC50 in ALCL SR cells (CCK8/WST, 72 hours); format: cell-based; settings: SR cells, WST
# [1] = target: T1, ALK protein in H3122 (EML4-ALK) cells (Homo sapiens, UniProt Q9UM73); assay: Western blot of ALK protein level (degradation, DC50), ALK phosphorylation and downstream signaling in H3122 cells; format: cell-based; settings: for DC50: ALK protein degradation in H3122 cells
# T1 construct: EML4 (Echinoderm microtubule-associated protein-like 4, Q9HC35) fusion partner, variant 1; host or cells: NCI-H3122 lung adenocarcinoma cells; the other entry of the earlier key: EML4 (Q9HC35, Echinoderm microtubule-associated protein-like 4)
# [2] = 72 h, Brigatinib-based PROTAD molecules (Table 3)
# [3] = Alectinib based ALK PROTAD compounds (Table 4)
# T1 sequence (Q9UM73 with tags, fused parts or gaps): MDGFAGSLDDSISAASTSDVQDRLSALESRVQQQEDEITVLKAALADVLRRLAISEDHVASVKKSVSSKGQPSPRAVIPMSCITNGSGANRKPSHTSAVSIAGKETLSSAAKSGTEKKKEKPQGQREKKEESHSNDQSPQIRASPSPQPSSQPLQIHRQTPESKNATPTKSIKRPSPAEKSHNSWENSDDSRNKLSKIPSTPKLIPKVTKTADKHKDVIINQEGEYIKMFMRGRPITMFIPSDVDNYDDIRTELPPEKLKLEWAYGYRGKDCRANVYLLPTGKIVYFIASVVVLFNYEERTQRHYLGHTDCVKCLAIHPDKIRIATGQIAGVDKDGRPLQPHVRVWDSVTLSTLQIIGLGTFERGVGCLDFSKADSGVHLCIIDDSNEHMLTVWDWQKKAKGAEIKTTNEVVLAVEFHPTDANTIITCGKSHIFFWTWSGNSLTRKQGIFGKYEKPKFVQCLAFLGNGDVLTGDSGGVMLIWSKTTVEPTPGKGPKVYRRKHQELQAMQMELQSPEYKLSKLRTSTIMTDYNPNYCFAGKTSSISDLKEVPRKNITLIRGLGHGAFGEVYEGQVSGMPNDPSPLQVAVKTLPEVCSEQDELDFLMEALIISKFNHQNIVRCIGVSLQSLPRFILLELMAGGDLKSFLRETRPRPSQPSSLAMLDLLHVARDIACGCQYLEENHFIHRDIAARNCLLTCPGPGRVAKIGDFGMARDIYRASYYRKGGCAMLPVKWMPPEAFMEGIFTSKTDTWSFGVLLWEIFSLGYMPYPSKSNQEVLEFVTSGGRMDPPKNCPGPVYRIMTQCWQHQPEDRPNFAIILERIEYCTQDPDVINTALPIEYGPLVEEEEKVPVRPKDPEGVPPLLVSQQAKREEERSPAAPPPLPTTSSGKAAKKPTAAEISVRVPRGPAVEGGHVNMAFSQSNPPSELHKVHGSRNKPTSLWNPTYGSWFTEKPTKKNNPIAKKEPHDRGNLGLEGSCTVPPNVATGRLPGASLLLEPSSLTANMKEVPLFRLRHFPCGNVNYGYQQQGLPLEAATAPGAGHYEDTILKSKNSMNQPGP
SMILES,DC50 [1],"phosphorylation of AKT and ERK ([1]; H3122 cells, western blot)","ALK protein level / degradation ([1]; H3122 cells, western blot, up to 500 nM)",IC50 (SR (NPM-ALK) cells; [2]),IC50 (SR (NPM-ALK) cells; [3])
"COc1cc(N2CCC(NC(=O)CCOCCOCCOCCOCCC(=O)N[C@H](C(=O)N3C[C@H](O)C[C@H]3C(=O)NCc3ccc(-c4scnc4C)cc3)C(C)(C)C)CC2)ccc1Nc1ncc(Cl)c(Nc2ccccc2P(C)(C)=O)n1 [SIAIS151126, N1-(1-(4-((5-chloro-4-((2-(dimethylphosphoryl)phenyl)amino)pyrimidin-2-yl)amino)-3-methoxyphenyl)piperidin-4-yl)-N16-((S)-1-((2S,4R)-4-hydroxy-2-((4-(4-methylthiazol-5-yl)benzyl)carbamoyl)pyrrolidin-1-yl)-3,3-dimethyl-1-oxobutan-2-yl)-4,7,10,13-tetraoxahexadecanediamide]",100 to 500 nM,–,–,31.9 ± 11.9 nM,–
"CCc1cc2c(cc1N1CCN(C(=O)CCCCCNc3cccc4c3C(=O)N(C3CCC(=O)NC3=O)C4=O)CC1)C(C)(C)c1[nH]c3cc(C#N)ccc3c1C2=O (stereo not shown) [SIAIS164026, 8-(4-(6-((2-(2,6-dioxopiperidin-3-yl)-1,3-dioxoisoindolin-4-yl)amino)hexanoyl)piperazin-1-yl)-9-ethyl-6,6-dimethyl-11-oxo-6,11-dihydro-5H-benzo[b]carbazole-3-carbonitrile]",1 to 10 nM,inhibited,reduced the protein level of ALK protein,–,148 nM
"CCc1cc2c(cc1N1CCN(C(=O)CCOCCOCCOCCOCCNc3cccc4c3C(=O)N(C3CCC(=O)NC3=O)C4=O)CC1)C(C)(C)c1[nH]c3cc(C#N)ccc3c1C2=O (stereo not shown) [SIAIS164014, 8-(4-(1-((2-(2,6-dioxopiperidin-3-yl)-1,3-dioxoisoindolin-4-yl)amino)-3,6,9,12-tetraoxapentadecan-15-oyl)piperazin-1-yl)-9-ethyl-6,6-dimethyl-11-oxo-6,11-dihydro-5H-benzo[b]carbazole-3-carbonitrile]",100 to 500 nM,–,–,–,81 nM
"COc1cc(N2CCC(NC(=O)CNc3cccc4c3C(=O)N(C3CCC(=O)NC3=O)C4=O)CC2)ccc1Nc1ncc(Cl)c(Nc2ccccc2P(C)(C)=O)n1 (stereo not shown) [SIAIS151120, N-(1-(4-((5-chloro-4-((2-(dimethylphosphoryl)phenyl)amino)pyrimidin-2-yl)amino)-3-methoxyphenyl)piperidin-4-yl)-2-((2-(2,6-dioxopiperidin-3-yl)-1,3-dioxoisoindolin-4-yl)amino)acetamide]",20 to 100 nM,–,–,11.4 ± 7.8 nM,–
"COc1cc(N2CCN(C(=O)CCOCCOCCC(=O)N[C@H](C(=O)N3C[C@H](O)C[C@H]3C(=O)NCc3ccc(-c4scnc4C)cc3)C(C)(C)C)CC2)ccc1Nc1ncc(Cl)c(Nc2ccccc2P(C)(C)=O)n1 [SIAIS197079, (2S,4R)-1-((S)-2-(3-(2-(3-(4-(4-((5-chloro-4-((2-(dimethylphosphoryl)phenyl)amino)pyrimidin-2-yl)amino)-3-methoxyphenyl)piperazin-1-yl)-3-oxopropoxy)ethoxy)propanamido)-3,3-dimethylbutanoyl)-4-hydroxy-N-(4-(4-methylthiazol-5-yl)benzyl)pyrrolidine-2-carboxamide]",50 to 500 nM,–,–,15.9 ± 8.5 nM,–
"COc1cc(N2CCC(NC(=O)COCCOCC(=O)N[C@H](C(=O)N3C[C@H](O)C[C@H]3C(=O)NCc3ccc(-c4scnc4C)cc3)C(C)(C)C)CC2)ccc1Nc1ncc(Cl)c(Nc2ccccc2P(C)(C)=O)n1 [SIAIS151128, (2S,4R)-1-((S)-2-(2-(2-(2-((1-(4-((5-chloro-4-((2-(dimethylphosphoryl)phenyl)amino)pyrimidin-2-yl)amino)-3-methoxyphenyl)piperidin-4-yl)amino)-2-oxoethoxy)ethoxy)acetamido)-3,3-dimethylbutanoyl)-4-hydroxy-N-(4-(4-methylthiazol-5-yl)benzyl)pyrrolidine-2-carboxamide]",100 to 500 nM,–,–,6.3 ± 0.2 nM,–
"COc1cc(N2CCC(NC(=O)CCOCCOCCNc3cccc4c3C(=O)N(C3CCC(=O)NC3=O)C4=O)CC2)ccc1Nc1ncc(Cl)c(Nc2ccccc2P(C)(C)=O)n1 (stereo not shown) [SIAIS151114, N-(1-(4-((5-chloro-4-((2-(dimethylphosphoryl)phenyl)amino)pyrimidin-2-yl)amino)-3-methoxyphenyl)piperidin-4-yl)-3-(2-(2-((2-(2,6-dioxopiperidin-3-yl)-1,3-dioxoisoindolin-4-yl)amino)ethoxy)ethoxy)propenamide]",100 to 500 nM,–,–,10.9 ± 7.5 nM,–
"CCc1cc2c(cc1N1CCN(C(=O)CCCc3cn(CCCC(=O)N[C@H](C(=O)N4C[C@H](O)C[C@H]4C(=O)NCc4ccc(-c5scnc5C)cc4)C(C)(C)C)nn3)CC1)C(C)(C)c1[nH]c3cc(C#N)ccc3c1C2=O [SIAIS164155, (2S,4R)-1-((S)-2-(4-(4-(4-(4-(3-cyano-9-ethyl-6,6-dimethyl-11-oxo-6,11-dihydro-5H-benzo[b]carbazol-8-yl)piperazin-1-yl)-4-oxobutyl)-1H-1,2,3-triazol-1-yl)butanamido)-3,3-dimethylbutanoyl)-4-hydroxy-N-(4-(4-methylthiazol-5-yl)benzyl)pyrrolidine-2-carboxamide]",10 to 50 nM,–,–,–,104 nM

# More lines, main results first:
DC50 [1],"phosphorylation of AKT and ERK ([1]; H3122 cells, western blot)","ALK protein level / degradation ([1]; H3122 cells, western blot, up to 500 nM)",SMILES,IC50 (SR (NPM-ALK) cells; [2]),IC50 (SR (NPM-ALK) cells; [3])
50 to 500 nM,–,–,"COc1cc(N2CCN(C(=O)CCOCCOCCOCCC(=O)N[C@H](C(=O)N3C[C@H](O)C[C@H]3C(=O)NCc3ccc(-c4scnc4C)cc3)C(C)(C)C)CC2)ccc1Nc1ncc(Cl)c(Nc2ccccc2P(C)(C)=O)n1 [SIAIS1197081, (2S,4R)-1-((S)-2-(tert-butyl)-16-(4-(4-((5-chloro-4-((2-(dimethylphosphoryl)phenyl)amino)pyrimidin-2-yl)amino)-3-methoxyphenyl)piperazin-1-yl)-4,16-dioxo-7,10,13-trioxa-3-azahexadecanoyl)-4-hydroxy-N-(4-(4-methylthiazol-5-yl)benzyl)pyrrolidine-2-carboxamide]",32.5 ± 19.8 nM,–
20 to 100 nM,–,–,"COc1cc(N2CCN(C(=O)CCOCCOCCOCCOCCOCCC(=O)N[C@H](C(=O)N3C[C@H](O)C[C@H]3C(=O)NCc3ccc(-c4scnc4C)cc3)C(C)(C)C)CC2)ccc1Nc1ncc(Cl)c(Nc2ccccc2P(C)(C)=O)n1 [SIAIS1197085, (2S,4R)-1-((S)-2-(tert-butyl)-22-(4-(4-((5-chloro-4-((2-(dimethylphosphoryl)phenyl)amino)pyrimidin-2-yl)amino)-3-methoxyphenyl)piperazin-1-yl)-4,22-dioxo-7,10,13,16,19-pentaoxa-3-azadocosanoyl)-4-hydroxy-N-(4-(4-methylthiazol-5-yl)benzyl)pyrrolidine-2-carboxamide]",62.5 ± 39.2 nM,–
20 to 100 nM,–,–,"COc1cc(N2CCN(C(=O)CCCC(=O)N[C@H](C(=O)N3C[C@H](O)C[C@H]3C(=O)NCc3ccc(-c4scnc4C)cc3)C(C)(C)C)CC2)ccc1Nc1ncc(Cl)c(Nc2ccccc2P(C)(C)=O)n1 [SIAIS1197147, (2S,4R)-1-((S)-2-(5-(4-(4-((5-chloro-4-((2-(dimethylphosphoryl)phenyl)amino)pyrimidin-2-yl)amino)-3-methoxyphenyl)piperazin-1-yl)-5-oxopentanamido)-3,3-dimethylbutanoyl)-4-hydroxy-N-(4-(4-methylthiazol-5-yl)benzyl)pyrrolidine-2-carboxamide]",14.2 ± 8.2 nM,–
100 to 500 nM,–,–,"COc1cc(N2CCN(C(=O)CCOCCOCCOCCOCCOCCNc3cccc4c3C(=O)N(C3CCC(=O)NC3=O)C4=O)CC2)ccc1Nc1ncc(Cl)c(Nc2ccccc2P(C)(C)=O)n1 (stereo not shown) [SIAIS1197073, 4-((18-(4-(4-((5-chloro-4-((2-(dimethylphosphoryl)phenyl)amino)pyrimidin-2-yl)amino)-3-methoxyphenyl)piperazin-1-yl)-18-oxo-3,6,9,12,15-pentaoxaoctadecyl)amino)-2-(2,6-dioxopiperidin-3-yl)isoindoline-1,3-dione]",34.2 ± 23.9 nM,–
100 to 500 nM,–,–,"COc1cc(N2CCN(C(=O)CCOCCOCCOCCNc3cccc4c3C(=O)N(C3CCC(=O)NC3=O)C4=O)CC2)ccc1Nc1ncc(C)c(Nc2ccccc2P(C)(C)=O)n1 (stereo not shown) [SIAIS1197069, 4-((2-(2-(2-(3-(4-(4-((4-((2-(dimethylphosphoryl)phenyl)amino)-5-methylpyrimidin-2-yl)amino)-3-methoxyphenyl)piperazin-1-yl)-3-oxopropoxy)ethoxy)ethoxy)ethyl)amino)-2-(2,6-dioxopiperidin-3-yl)isoindoline-1,3-dione]",22.3 ± 18.2 nM,–
1 to 50 nM,–,–,"COc1cc(N2CCN(C(=O)CCCNc3cccc4c3C(=O)N(C3CCC(=O)NC3=O)C4=O)CC2)ccc1Nc1ncc(Cl)c(Nc2ccccc2P(C)(C)=O)n1 (stereo not shown) [SIAIS1197059, 4-((4-(4-(4-((5-chloro-4-((2-(dimethylphosphoryl)phenyl)amino)pyrimidin-2-yl)amino)-3-methoxyphenyl)piperazin-1-yl)-4-oxobutyl)amino)-2-(2,6-dioxopiperidin-3-yl)isoindoline-1,3-dione]",10.7 ± 6.2 nM,–
50 to 500 nM,–,–,"COc1cc(N2CCN(C(=O)CCNc3cccc4c3C(=O)N(C3CCC(=O)NC3=O)C4=O)CC2)ccc1Nc1ncc(Cl)c(Nc2ccccc2P(C)(C)=O)n1 (stereo not shown) [SIAIS1197057, 4-((3-(4-(4-((5-chloro-4-((2-(dimethylphosphoryl)phenyl)amino)pyrimidin-2-yl)amino)-3-methoxyphenyl)piperazin-1-yl)-3-oxopropyl)amino)-2-(2,6-dioxopiperidin-3-yl)isoindoline-1,3-dione]",17.7 ± 9.6 nM,–
20 to 100 nM,–,–,"COc1cc(N2CCN(C(=O)CCCCCC(=O)N[C@H](C(=O)N3C[C@H](O)C[C@H]3C(=O)NCc3ccc(-c4scnc4C)cc3)C(C)(C)C)CC2)ccc1Nc1ncc(Cl)c(Nc2ccccc2P(C)(C)=O)n1 [SIAIS1197151, (2S,4R)-1-((S)-2-(7-(4-(4-((5-chloro-4-((2-(dimethylphosphoryl)phenyl)amino)pyrimidin-2-yl)amino)-3-methoxyphenyl)piperazin-1-yl)-7-oxoheptanamido)-3,3-dimethylbutanoyl)-4-hydroxy-N-(4-(4-methylthiazol-5-yl)benzyl)pyrrolidine-2-carboxamide]",16.7 ± 7.3 nM,–
